In patent publication US8076338B2, “Kinase modulators and methods of use” (Exelixis, Inc., priority 2004, dated 2011):
Read-outs that look alike come from different tables or passages of the source.

Legend:
AktK = AktK (Homo sapiens, UniProt P31749); assay: Luciferase-coupled chemiluminescence kinase assay (ATP consumption); format: biochemical; details: read-out: AKT-1 IC50
Procedure, shortened: (§1)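 Enzyme at 2.5-5 nM was preincubated 30 min at room temperature with compound in Tris pH 7.5, MgCl2, TX-100, DTT, then reacted with ATP for 3 h at ambient temperature. Remaining ATP was quantified by luciferase-luciferin chemiluminescence, with consumption kept at 25-60%; […].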

p70S6K = p70S6K (Homo sapiens, UniProt P23443); assay: as above; format: biochemical
Procedure, shortened: as §1

Chain of AktK (P31749 whole entry): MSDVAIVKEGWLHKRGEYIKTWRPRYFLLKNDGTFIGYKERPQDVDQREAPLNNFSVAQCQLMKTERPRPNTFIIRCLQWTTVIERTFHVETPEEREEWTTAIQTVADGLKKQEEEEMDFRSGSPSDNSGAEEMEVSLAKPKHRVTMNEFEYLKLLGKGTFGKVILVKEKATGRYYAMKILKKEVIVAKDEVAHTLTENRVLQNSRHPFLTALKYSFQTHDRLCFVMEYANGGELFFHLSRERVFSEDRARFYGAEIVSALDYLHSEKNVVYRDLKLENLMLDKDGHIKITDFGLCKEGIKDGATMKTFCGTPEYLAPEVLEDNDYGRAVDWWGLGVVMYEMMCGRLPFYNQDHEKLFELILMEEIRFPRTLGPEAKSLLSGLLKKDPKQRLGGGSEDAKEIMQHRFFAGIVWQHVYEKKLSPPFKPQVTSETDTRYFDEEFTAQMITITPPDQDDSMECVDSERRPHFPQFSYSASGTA
Chain of p70S6K (P23443 whole entry): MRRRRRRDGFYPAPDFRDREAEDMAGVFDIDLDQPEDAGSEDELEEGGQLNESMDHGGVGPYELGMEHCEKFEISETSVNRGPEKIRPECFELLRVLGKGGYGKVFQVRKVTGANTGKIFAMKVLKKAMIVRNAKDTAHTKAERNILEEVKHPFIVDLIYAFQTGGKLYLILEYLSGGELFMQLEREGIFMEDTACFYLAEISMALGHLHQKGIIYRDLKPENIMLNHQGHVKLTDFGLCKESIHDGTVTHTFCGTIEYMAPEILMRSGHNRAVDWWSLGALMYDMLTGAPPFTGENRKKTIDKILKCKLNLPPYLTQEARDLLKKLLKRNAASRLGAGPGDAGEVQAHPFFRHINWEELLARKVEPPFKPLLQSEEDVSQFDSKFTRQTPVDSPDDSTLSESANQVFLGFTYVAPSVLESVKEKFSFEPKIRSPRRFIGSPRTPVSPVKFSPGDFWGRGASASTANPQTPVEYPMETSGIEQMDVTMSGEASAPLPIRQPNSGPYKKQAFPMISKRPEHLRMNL

| Compound | IC50 (AktK; Table 1, class symbols per key) [nM] | IC50 (p70S6K; Table 1, class symbols per key) [nM] | IC50 (AktK) [nM] | IC50 (p70S6K) [nM] |
| --- | --- | --- | --- | --- |
| COC(=O)c1cc(NCCN2CCCC2)c(C)c(N2CCN(c3ncnc4[nH]nc(Br)c34)CC2)c1 [Entry 190, methyl 3-[4-(3-bromo-1H-pyrazolo[3,4-d]pyrimidin-4-yl)piperazin-1-yl]-4-methyl-5-[(2-pyrrolidin-1-ylethyl)amino]benzoate] | < 100 | < 100 | – | – |
| Cc1ccccc1N1CCN(c2ncnc3[nH]ncc23)CC1 [Entry 317, 4-[4-(2-methylphenyl)piperazin-1-yl]-1H-pyrazolo[3,4-d]pyrimidine] | – | – | ≥ 10000 | 100 to 1000 |
| CCOc1cc(NCCN2CCCC2)c(C)c(N2CCN(c3ncnc4[nH]nc(Br)c34)CC2)c1 [Entry 212, 3-[4-(3-bromo-1H-pyrazolo[3,4-d]pyrimidin-4-yl)piperazin-1-yl]-5-(ethyloxy)-2-methyl-N-(2-pyrrolidin-1-ylethyl)aniline] | < 100 | < 100 | – | – |
| O=C(COc1cccc(N2CCN(c3ncnc4[nH]nc(Br)c34)CC2)c1)NC1CC1 [Entry 166, 2-({3-[4-(3-bromo-1H-pyrazolo[3,4-d]pyrimidin-4-yl)piperazin-1-yl]phenyl}oxy)-N-cyclopropylacetamide] | 1000 to 10000 | < 100 | – | – |
| Cc1c(OCCC2CCN(C)CC2)cc(Cl)cc1N1CCN(c2ncnc3[nH]nc(C(F)(F)F)c23)CC1 [Entry 91, 4-[4-(5-chloro-2-methyl-3-{[2-(1-methylpiperidin-4-yl)ethyl]oxy}phenyl)piperazin-1-yl]-3-(tri-fluoromethyl)-1H-pyrazolo[3,4-d]pyrimidine] | 100 to 1000 | < 100 | – | – |
| 2-[4-(3-bromo-1H-pyrazolo[3,4-d]pyrimidin-4-yl)piperazin-1-yl]-N,N-diethylpyrimidin-4-amine [Entry 140] | 1000 to 10000 | 100 to 1000 | – | – |
| CCc1n[nH]c2ncnc(N3CCN(c4cc(Cl)cc(OCC5CCN(C)CC5)c4C)CC3)c12 [Entry 31, 4-[4-(5-chloro-2-methyl-3-{[(1-methylpiperidin-4-yl)methyl]oxy}phenyl)piperazin-1-yl]-3-ethyl-1H-pyrazolo[3,4-d]pyrimidine] | 100 to 1000 | < 100 | – | – |
| Fc1ccc(N2CCN(c3ncnc4[nH]nc(Br)c34)CC2)cc1Cl [Entry 93, 3-bromo-4-[4-(3-chloro-4-fluorophenyl)piperazin-1-yl]-1H-pyrazolo[3,4-d]pyrimidine] | 1000 to 10000 | < 100 | – | – |
| CCc1n[nH]c2ncnc(N3CCN(c4nc(C)cc(C)n4)CC3)c12 [Entry 111, 4-[4-(4,6-dimethylpyrimidin-2-yl)piperazin-1-yl]-3-ethyl-1H-pyrazolo[3,4-d]pyrimidine] | ≥ 10000 | 1000 to 10000 | – | – |
| Cc1c(CCCN2CCCCC2)cc(Cl)cc1N1CCN(c2ncnc3[nH]nc(Br)c23)CC1 [Entry 27, 3-bromo-4-{4-[5-chloro-2-methyl-3-(3-piperidin-1-ylpropyl)phenyl]piperazin-1-yl}-1H-pyrazolo[3,4-d]pyrimidine] | < 100 | < 100 | – | – |
| N′-{3-[4-(3-bromo-1H-pyrazolo[3,4-d]pyrimidin-4-yl)piperazin-1-yl]-2-methyl-5-[(2-methyl-propyl)oxy]phenyl}-N,N-diethylethane-1,2-diamine [Entry 185] | < 100 | < 100 | – | – |
| Cc1c(NCCN2CCCC2)cc(OCC2CC2)cc1N1CCN(c2ncnc3[nH]nc(Br)c23)CC1 [Entry 205, 3-[4-(3-bromo-1H-pyrazolo[3,4-d]pyrimidin-4-yl)piperazin-1-yl]-5-[(cyclopropylmethyl)oxy]-2-methyl-N-(2-pyrrolidin-1-ylethyl)aniline] | < 100 | < 100 | – | – |
| FC(F)(F)c1cnc(N2CCN(c3ncnc4[nH]nc(Br)c34)CC2)c(Cl)c1 [Entry 136, 3-bromo-4-{4-[3-chloro-5-(trifluoromethyl)pyridin-2-yl]piperazin-1-yl}-1H-pyrazolo[3,4-d]pyrimidine] | ≥ 10000 | 1000 to 10000 | – | – |
| Cc1c(NCCN2CCCC2)cc(C(=O)N(C)C(C)C)cc1N1CCN(c2ncnc3[nH]nc(Br)c23)CC1 [Entry 210, 3-[4-(3-bromo-1H-pyrazolo[3,4-d]pyrimidin-4-yl)piperazin-1-yl]-N,4-dimethyl-N-(1-methylethyl)-5-[(2-pyrrolidin-1-ylethyl)amino]benzamide] | 100 to 1000 | < 100 | – | – |
| CCCCC(=O)c1cc(NCCN2CCCC2)c(C)c(N2CCN(c3ncnc4[nH]nc(Br)c34)CC2)c1 [Entry 228, 1-{3-[4-(3-bromo-1H-pyrazolo[3,4-d]pyrimidin-4-yl)piperazin-1-yl]-4-methyl-5-[(2-pyrrolidin-1-ylethyl)amino]phenyl}pentan-1-one] | < 100 | < 100 | – | – |
| 3-bromo-4-(4-{4-methyl-3′-[(2-pyrrolidin-1-yl-ethyl)oxy]biphenyl-3-yl}piperazin-1-yl)-1H-pyrazolo[3,4-d]pyrimidine [Entry 290] | – | – | < 100 | < 100 |

| Compound | IC50 (AktK; Table 1, class symbols per key) [nM] | IC50 (p70S6K; Table 1, class symbols per key) [nM] | IC50 (AktK) [nM] | IC50 (p70S6K) [nM] |
| --- | --- | --- | --- | --- |
| Cc1ccc(Cl)cc1N1CCN(c2ncnc3[nH]nc(C#CCN4CCN(C)CC4)c23)CC1 [Entry 398, 4-[4-(5-chloro-2-methylphenyl)piperazin-1-yl]-3-[3-(4-methylpiperazin-1-yl)prop-1-yn-1-yl]-1H-pyrazolo[3,4-d]pyrimidine] | – | – | 1000 to 10000 | 100 to 1000 |
| CCc1n[nH]c2ncnc(N3CC4CC3CN4c3cccc(Cl)c3)c12 (stereo not shown) [Entry 344, 4-[5-(3-chlorophenyl)-2,5-diazabicyclo[2.2.1]hept-2-yl]-3-ethyl-1H-pyrazolo[3,4-d]pyrimidine] | – | – | 1000 to 10000 | < 100 |
| Cc1c(OCCN2CCN(C)CC2)cc(Cl)cc1N1CCN(c2ncnc3[nH]nc(Br)c23)CC1 [Entry 72, 3-bromo-4-[4-(5-chloro-2-methyl-3-{[2-(4-methylpiperazin-1-yl)ethyl]oxy}phenyl)piperazin-1-yl]-1H-pyrazolo[3,4-d]pyrimidine] | 100 to 1000 | < 100 | – | – |
| Cc1ccc(Cl)cc1N1CCN(c2nc(C(C)C)nc3[nH]ncc23)CC1 [Entry 326, 4-[4-(5-chloro-2-methylphenyl)piperazin-1-yl]-6-(1-methylethyl)-1H-pyrazolo[3,4-d]pyrimidine] | – | – | 1000 to 10000 | 1000 to 10000 |
| FC(F)(F)c1ccnc(N2CCN(c3ncnc4[nH]nc(Br)c34)CC2)c1 [Entry 117, 3-bromo-4-{4-[4-(trifluoromethyl)pyridin-2-yl]piperazin-1-yl}-1H-pyrazolo[3,4-d]pyrimidine] | ≥ 10000 | 100 to 1000 | – | – |
| Cc1c(NCCN2CCCC2)cc(C#Cc2ccccc2)cc1N1CCN(c2ncnc3[nH]nc(Br)c23)CC1 [Entry 235, 3-[4-(3-bromo-1H-pyrazolo[3,4-d]pyrimidin-4-yl)piperazin-1-yl]-2-methyl-5-(phenylethynyl)-N-(2-pyrrolidin-1-ylethyl)aniline] | 100 to 1000 | < 100 | – | – |
| Cc1nc(N2CCN(c3cc(Cl)ccc3C)CC2)c2cn[nH]c2n1 [Entry 324, 4-[4-(5-chloro-2-methylphenyl)piperazin-1-yl]-6-methyl-1H-pyrazolo[3,4-d]pyrimidine] | – | – | 1000 to 10000 | 1000 to 10000 |
| Cc1c(NCCN2CCCC2)cc(C(=O)NC(C)C)cc1N1CCN(c2ncnc3[nH]nc(Br)c23)CC1 [Entry 209, 3-[4-(3-bromo-1H-pyrazolo[3,4-d]pyrimidin-4-yl)piperazin-1-yl]-4-methyl-N-(1-methylethyl)-5-[(2-pyrrolidin-1-ylethyl)amino]benzamide] | < 100 | < 100 | – | – |
| Cc1ccc(N2CCN(c3ncnc4[nH]nc(Br)c34)CC2)cc1C [Entry 96, 3-bromo-4-[4-(3,4-dimethylphenyl)piperazin-1-yl]-1H-pyrazolo[3,4-d]pyrimidine] | ≥ 10000 | 100 to 1000 | – | – |
| FC(F)(F)c1cccc(N2CCN(c3ncnc4[nH]ccc34)CC2)c1 [Entry 305, 4-{4-[3-(trifluoromethyl)phenyl]piperazin-1-yl}-7H-pyrrolo[2,3-d]pyrimidine] | – | – | ≥ 10000 | 100 to 1000 |
| Clc1ccc(N2CCN(c3ncnc4[nH]cnc34)CC2)cc1 [Entry 308, 6-[4-(4-chlorophenyl)piperazin-1-yl]-9H-purine] | – | – | ≥ 10000 | 1000 to 10000 |
| Cc1c(OCCN2CCCCC2)cc(Cl)cc1N1CCN(c2ncnc3[nH]nc(Br)c23)CC1 [Entry 20, 3-bromo-4-(4-{5-chloro-2-methyl-3-[(2-piperidin-1-ylethyl)oxy]phenyl}piperazin-1-yl)-1H-pyrazolo[3,4-d]pyrimidine] | 100 to 1000 | < 100 | – | – |
| COc1cccc(N2CCN(c3ncnc4[nH]ccc34)CC2)c1 [Entry 303, 4-{4-[3-(methyloxy)phenyl]piperazin-1-yl}-7H-pyrrolo[2,3-d]pyrimidine] | – | – | ≥ 10000 | 100 to 1000 |
| CCN(CC)CCCOc1nc(Cl)c(C)c(N2CCN(c3ncnc4[nH]nc(Br)c34)CC2)n1 [Entry 173, 3-({4-[4-(3-bromo-1H-pyrazolo[3,4-d]pyrimidin-4-yl)piperazin-1-yl]-6-chloro-5-methylpyrimidin-2-yl}oxy)-N,N-diethylpropan-1-amine] | 1000 to 10000 | 100 to 1000 | – | – |
| Cc1c(NCCN2CCCC2)cc(-c2nccs2)cc1N1CCN(c2ncnc3[nH]nc(Br)c23)CC1 [Entry 233, 3-[4-(3-bromo-1H-pyrazolo[3,4-d]pyrimidin-4-yl)piperazin-1-yl]-2-methyl-N-(2-pyrrolidin-1-ylethyl)-5-(1,3-thiazol-2-yl)aniline] | < 100 | < 100 | – | – |
| Cc1ccc(-c2ccccc2OCCN2C(=O)CCC2=O)cc1N1CCN(c2ncnc3[nH]nc(Br)c23)CC1 [Entry 281, 1-[2-({3′-[4-(3-bromo-1H-pyrazolo[3,4-d]pyrimidin-4-yl)piperazin-1-yl]-4′-methylbiphenyl-2-yl}oxy)ethyl]pyrrolidine-2,5-dione] | < 100 | < 100 | – | – |
